# Source: patent US9572343B2, “Active compound combinations” (BAYER CROPSCIENCE AG, priority 2012, dated 2017)
# Where two headings read alike, the source gives them in different places.
# Assays:
# Format in all cases: in vivo
# [1] = test system: Venturia inaequalis; experiment: Venturia test (apples)/preventive; conditions: Table I1
# Method: (§1) Solvent: 24.5 parts by weight of acetone • 24.5 parts by weight of dimethylacetamide Emulsifier: 1 part by weight of alkylaryl polyglycol ether To produce a suitable preparation of active compound, 1 part by weight of active compound is mixed with the stated amounts of solvent and emulsifier, and the concentrate is diluted with water to the desired concentration. To test for preventive activity, young plants are sprayed with the preparation of active compound at the stated rate of application.
# [2] = test system: Leptosphaeria nodorum; experiment: Leptosphaeria nodorum test (wheat)/preventive; conditions: Table C1
# Method: (§2) Solvent: 49 parts by weight of N,N-dimethylacetamide Emulsifier: 1 part by weight of alkylaryl polyglycol ether To produce a suitable preparation of active compound, 1 part by weight of active compound or active compound combination is mixed with the stated amounts of solvent and emulsifier, and the concentrate is diluted with water to the desired concentration. To test for preventive activity, young plants are sprayed with the preparation of active compound or active compound combination at the stated rate of application. After the spray coating has been dried, the plants are sprayed with a spore suspension of Leptosphaeria nodorum.
# [3] = test system: Sphaerotheca fuliginea; experiment: Sphaerotheca test (cucumbers)/preventive; conditions: Table G1
# Method: as §1, with “application. After the spray coating has dried on, the plants are inoculated with an aqueous spore suspension of Sphaerotheca fuliginea.” for “application.”
# [4] = test system: Phakopsora pachyrhizi; experiment: Phakopsora test (soybeans)/preventive; conditions: Phakopsora pachyrhizi, 168 h, read-out: Efficacy in % found; for pest or weed control at 0.5 ppm: application rate 0.5 ppm a.i.
# [5] = test system: Uromyces appendiculatus; experiment: Uromyces test (beans)/preventive; conditions: Uromyces appendiculatus, 240 h, read-out: Efficacy in % found; for pest or weed control at 0.2 ppm: application rate 0.2 ppm a.i.
# Method: (§3) Solvent: 24.5 parts by weight of acetone • 24.5 parts by weight of dimethylacetamide
# (§4) Emulsifier: 1 part by weight of alkylaryl polyglycol ether
# (§5) To produce a suitable preparation of active compound, 1 part by weight of active compound is mixed with the stated amounts of solvent and emulsifier, and the concentrate is diluted with water to the desired concentration.
# (§6) To test for preventive activity, young plants are sprayed with the preparation of active compound at the stated rate of application. After the spray coating has dried on, the plants are inoculated with an aqueous spore suspension of the causal agent of bean rust (Uromyces appendiculatus) and then remain for 1 day in an incubation cabinet at approximately 20° C. and a relative atmospheric humidity of 100%.
# The plants are then placed in a greenhouse at approximately 21° C. and a relative atmospheric humidity of approximately 90%.
# The test is evaluated 10 days after the inoculation. 0% means an efficacy which corresponds to that of the untreated control, while an efficacy of 100% means that no disease is observed.
# [6] = test system: Septoria tritici; experiment: Septoria tritici-test (wheat)/preventive; conditions: Table F1
# Method: as §2, with “Septoria tritici.” for “Leptosphaeria nodorum.”
# [7] = test system: Pyrenophora teres; experiment: Pyrenophora teres-test (barley)/preventive; conditions: Table E1; application rate 160 ppm a.i.
# Method: Solvent: 49 parts by weight of N,N-dimethylacetamide
# as §4
# To produce a suitable preparation of active compound, 1 part by weight of active compound or active compound combination is mixed with the stated amounts of solvent and emulsifier, and the concentrate is diluted with water to the desired concentration.
# To test for preventive activity, young plants are sprayed with the preparation of active compound or active compound combination at the stated rate of application.
# After the spray coating has been dried, the plants are sprayed with a spore suspension of Pyrenophora teres. The plants remain for 48 hours in an incubation cabinet at approximately 20° C. and a relative atmospheric humidity of approximately 100%.
# The plants are placed in the greenhouse at a temperature of approximately 20° C. and a relative atmospheric humidity of approximately 80%.
# The test is evaluated 8 days after the inoculation. 0% means an efficacy which corresponds to that of the untreated control, while an efficacy of 100% means that no disease is observed.
# [8] = test system: Blumeria graminis f.sp. hordei; experiment: Blumeria test (barley)/preventive; conditions: Table B1; application rate 160 ppm a.i.
# Method: Solvent: 49 parts by weight of N,N-dimethylacetamide Emulsifier: 1 part by weight of alkylaryl polyglycol ether To produce a suitable preparation of active compound, 1 part by weight of active compound or active compound combination is mixed with the stated amounts of solvent and emulsifier, and the concentrate is diluted with water to the desired concentration. To test for preventive activity, young plants are sprayed with the preparation of active compound or active compound combination at the stated rate of application. After the spray coating has been dried, the plants are dusted with spores of Blumeria graminis f.sp. hordei.
# [9] = test system: Alternaria solani; experiment: Alternaria test (tomatoes)/preventive
# Method: as §3, §4, §5
# as §6, with “Alternaria solani. The plants are” for “the causal agent of bean rust (Uromyces appendiculatus) and”, “placed” for “remain for 1 day”
# The test is evaluated 3 days after the inoculation. 0% means an efficacy which corresponds to that of the untreated control while an efficacy of 100% means that no disease is observed.
structure (smiles),measurement,setting,value
"Cn1c(=O)c2sc3c(=O)n(C)c(=O)c3sc2c1=O [15.61, 2,6-dimethyl-1H,5H-[1,4]dithiino[2,3-c:5,6-c′]dipyrrole-1,3,5,7(2H,6H)-tetrone]",Efficacy in % found,[1]; application rate 50 ppm a.i.,84%
same,Efficacy in % found,[2]; application rate 800 ppm a.i.,20%
same,Efficacy in % found,[3]; application rate 100 ppm a.i.,69%
same,pest or weed control at 100 ppm,"[4]; Table D3, application rate 100 ppm a.i.",8%
same,pest or weed control at 100 ppm,"[5]; Table H3, application rate 100 ppm a.i.",0%
same,Efficacy in % found,[6]; application rate 800 ppm a.i.,0%
CCN(C)/C=N/c1cc(C)c(Oc2nc(Cl)c(Cl)s2)cc1C [(Ie)],Efficacy in % found,[7],57%
same,Efficacy in % found,[8],50%
same,Efficacy in % found,[1]; application rate 0.25 ppm a.i.,0%
same,Efficacy in % found,[1]; application rate 0.5 ppm a.i.,0%
same,Efficacy in % found,[1]; application rate 1 ppm a.i.,0%
same,Efficacy in % found,[2]; application rate 80 ppm a.i.,30%
same,Efficacy in % found,[2]; application rate 160 ppm a.i.,50%
same,Efficacy in % found,"[9]; Table A1, application rate 0.5 ppm a.i.",0%
same,Efficacy in % found,"[9]; Table A1, application rate 1 ppm a.i.",16%
same,Efficacy in % found,"[9]; Table A2, application rate 5 ppm a.i.",0%
same,Efficacy in % found,"[9]; Table A3, application rate 1 ppm a.i.",52%
same,Efficacy in % found,[3]; application rate 0.5 ppm a.i.,29%
same,Efficacy in % found,[3]; application rate 1 ppm a.i.,29%
same,Efficacy in % found,[3]; application rate 1.25 ppm a.i.,29%
same,pest or weed control at 0.25 ppm,"[4]; Table D1, application rate 0.25 ppm a.i.",15%
same,pest or weed control at 0.5 ppm,[4]; Table D1,35%
same,pest or weed control at 0.5 ppm,[4]; Table D2,45%
same,pest or weed control at 0.5 ppm,[4]; Table D3,40%
same,pest or weed control at 1 ppm,"[4]; Table D3, application rate 1 ppm a.i.",65%
same,pest or weed control at 0.25 ppm,"[5]; Table H1, application rate 0.25 ppm a.i.",50%
same,pest or weed control at 0.05 ppm,"[5]; Table H2, application rate 0.05 ppm a.i.",0%
same,pest or weed control at 0.1 ppm,"[5]; Table H2, application rate 0.1 ppm a.i.",0%
same,pest or weed control at 0.2 ppm,[5]; Table H2,30%
same,pest or weed control at 0.2 ppm,[5]; Table H3,11%
same,Efficacy in % found,[6]; application rate 160 ppm a.i.,0%
